Structures can show the parent of a compound that is named as a salt. Square brackets hold non-standard residues; d marks the D form. Peptide text beside a SMILES is read from it. * marks the point of attachment. Benzoyl(4-guanidino) = N=C(N)Nc1ccc(C(=O)*)cc1; Oic = O=C(O)[C@@H]1C[C@@H]2CCCC[C@@H]2N1; Hyp = O=C(O)[C@@H]1C[C@@H](O)CN1; dTic = O=C(O)[C@H]1Cc2ccccc2CN1; 2Thi = N[C@@H](Cc1cccs1)C(=O)O
Molecular target: T1, B2 receptor (Oryctolagus cuniculus, UniProt Q28642)
T1 construct: rabbit jugular vein: B2 receptor; from tissue; host or cells: rabbit jugular vein
T1 sequence (Q28642 1-367): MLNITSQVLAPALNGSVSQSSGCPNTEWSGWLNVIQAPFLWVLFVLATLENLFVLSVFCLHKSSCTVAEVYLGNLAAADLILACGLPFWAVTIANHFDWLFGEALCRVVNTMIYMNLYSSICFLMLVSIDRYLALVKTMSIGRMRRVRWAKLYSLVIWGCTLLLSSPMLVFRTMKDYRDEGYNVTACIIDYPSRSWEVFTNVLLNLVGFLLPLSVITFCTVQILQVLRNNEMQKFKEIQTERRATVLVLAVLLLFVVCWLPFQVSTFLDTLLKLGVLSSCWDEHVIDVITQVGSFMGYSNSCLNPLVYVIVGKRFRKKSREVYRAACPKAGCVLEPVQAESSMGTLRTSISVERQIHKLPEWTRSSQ
Assay: Inhibition of bradykinin-induced contraction of rabbit jugular vein (B2 receptor)
Format: cell-based
Settings: read-out: pA2 (negative logarithm of the molar concentration which necessitates a doubling of the bradykinin concentration to obtain the same effect) (converted)
From the text: Pharmacological study of the compound of the invention: rabbit jugular vein: B2 receptor

For `N=C(N)NCCC[C@H](NC(=O)[C@@H]1C[C@@H]2CCCC[C@@H]2N1C(=O)[C@H]1Cc2ccccc2CN1C(=O)[C@H](CO)NC(=O)[C@H](Cc1cccs1)NC(=O)CNC(=O)[C@@H]1C[C@@H](O)CN1C(=O)[C@@H]1CCCN1C(=O)[C@H](CCCNC(=N)N)NC(=O)c1ccc(NC(=N)N)cc1)C(=O)O` [Example 1, G-Arg-Pro-Hyp-Gly-Thia-Ser-(D)Tic-Oic-Arg-OH trifluoroacetate] ({Benzoyl(4-guanidino)}-RP[Hyp]G[2Thi]S[dTic][Oic]R-OH), the Kb was 0.186 nM.
